In ChEMBL document CHEMBL1201862, “PubChem BioAssay data set” (2004):
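Five compound concentrations were applied to cells in 96-well plates for 48 hours; endpoints were derived by simple linear interpolation of the resulting dose-response curve. GI50: concentration for 50% inhibition of growth.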 Activity calls are given as the source filed them. No stated cut-off is given here; in the data, active = GI50 up to about 1.1 µM and inactive = higher.

Columns and labels:
Experiment in all cases: growth of human tumour cells (NCI), 48 h
[1] = tested on: HT-29
[2] = tested on: HCT-15
[3] = tested on: MDA-MB-435
[4] = tested on: IGROV-1
[5] = tested on: EKVX
[6] = tested on: CAKI-1
[7] = tested on: SF-295
[8] = tested on: MDA-MB-231
[9] = tested on: COLO 205
[10] = tested on: HCT-116
[11] = tested on: OVCAR-4
[12] = tested on: SK-MEL-5
[13] = tested on: SW-620
[14] = tested on: NCI-H522
[15] = tested on: NCI/ADR-RES
[16] = tested on: PC-3
[17] = tested on: UACC-257
[18] = tested on: Malme-3M
[19] = tested on: A498
[20] = tested on: SK-MEL-28

SMILES	GI50 [1]	GI50 [2] [µM]	GI50 [3]	GI50 [4]	GI50 [5]	GI50 [6]	GI50 [7]	GI50 [8]	GI50 [9]	GI50 [10]	GI50 [11]	GI50 [12]	GI50 [13]	GI50 [14]	GI50 [15]	GI50 [16]	GI50 [17]	GI50 [18]	GI50 [19]	GI50 [20]
COC1(OC)CCc2c(sc3ncnc(Nc4cccc(Br)c4)c23)C1	20 µM (inactive)	30.8	62.2 µM (inactive)	16.7 µM (inactive)	11.2 µM (inactive)	30.6 µM (inactive)	72.8 µM (inactive)	49.5 µM (inactive)	35.4 µM (inactive)	39.3 µM (inactive)	27.7 µM (inactive)	30.9 µM (inactive)	21.7 µM (inactive)	12.4 µM (inactive)	25.5 µM (inactive)	43.3 µM (inactive)	87.3 µM (inactive)	41.5 µM (inactive)	> 100 µM (inactive)	
N=C(N)N/N=C(/c1ccccc1)c1ccc(O)cc1O	19.7 µM (inactive)	39.4	19.1 µM (inactive)	25.1 µM (inactive)	22.2 µM (inactive)	51.5 µM (inactive)	28.2 µM (inactive)	45.1 µM (inactive)	17.5 µM (inactive)	29 µM (inactive)	57 µM (inactive)	25.8 µM (inactive)	36.7 µM (inactive)	15.3 µM (inactive)	95.3 µM (inactive)	29 µM (inactive)	35.6 µM (inactive)	22.6 µM (inactive)	21.9 µM (inactive)	72.6 µM (inactive)
O=C1c2ccccc2C(=O)c2c(NCC3CO3)cccc21 (stereo not drawn)	18.2 µM (inactive)	7.23	7.59 µM (inactive)	17.4 µM (inactive)	17.5 µM (inactive)	4.75 µM (inactive)	26.5 µM (inactive)	15.2 µM (inactive)	> 53.1 µM (inactive)	7.01 µM (inactive)	> 86.1 µM (inactive)	22.6 µM (inactive)	5.57 µM (inactive)	23.2 µM (inactive)	9.91 µM (inactive)	16.9 µM (inactive)	> 56.2 µM (inactive)	> 80.5 µM (inactive)	34.4 µM (inactive)	> 41.7 µM (inactive)
Cc1c(C)c2c(c(N)c1C#N)C(=O)N(CCN1CCNCC1)C2=O		35.6	33.5 µM (inactive)	34.7 µM (inactive)	39 µM (inactive)	42 µM (inactive)	31.5 µM (inactive)	19.3 µM (inactive)	22.5 µM (inactive)	16.1 µM (inactive)	40.2 µM (inactive)	> 10 µM (inactive)	31.6 µM (inactive)	17.9 µM (inactive)	33.4 µM (inactive)	18.4 µM (inactive)	37.7 µM (inactive)	22.6 µM (inactive)	22.2 µM (inactive)	38.3 µM (inactive)
O=S(=O)(O)/C(=N\c1cccc(Cc2ccccc2)c1)Nc1cccc(Cc2ccccc2)c1	18 µM (inactive)	17.6	20.1 µM (inactive)	16.6 µM (inactive)	16.7 µM (inactive)	42.5 µM (inactive)	18.2 µM (inactive)	17.8 µM (inactive)	18.3 µM (inactive)	14.9 µM (inactive)	19.5 µM (inactive)	18.1 µM (inactive)	23.7 µM (inactive)	14.9 µM (inactive)	18.2 µM (inactive)	18.3 µM (inactive)	24.2 µM (inactive)	17.5 µM (inactive)	22.4 µM (inactive)	19.6 µM (inactive)
Cc1ccc([N+](=O)[O-])cc1S(=O)(=O)Nc1ccc(C2=NNC(c3ccccc3)C2)cc1 (stereo not drawn)	27.4 µM (inactive)	10.4	17.1 µM (inactive)	16.3 µM (inactive)	21 µM (inactive)	11.9 µM (inactive)	3.02 µM (inactive)	15.3 µM (inactive)	16.9 µM (inactive)	13.1 µM (inactive)	14.5 µM (inactive)	14.7 µM (inactive)	25.4 µM (inactive)	13.8 µM (inactive)	21.1 µM (inactive)	16.7 µM (inactive)	15.8 µM (inactive)	17 µM (inactive)	13.2 µM (inactive)	25.2 µM (inactive)
O=C(c1ccccc1)c1ccc2c(c1)nc1n2C(c2c(Cl)cccc2Cl)SC1 (stereo not drawn)	56.1 µM (inactive)	56	59.2 µM (inactive)	> 100 µM (inactive)	50.4 µM (inactive)	70.6 µM (inactive)	27.6 µM (inactive)	> 100 µM (inactive)	45.6 µM (inactive)	29 µM (inactive)	75.7 µM (inactive)	27.5 µM (inactive)	> 100 µM (inactive)	55.8 µM (inactive)	40.3 µM (inactive)	38.1 µM (inactive)	95.5 µM (inactive)	97.5 µM (inactive)	58.7 µM (inactive)	> 100 µM (inactive)
